In patent publication US5916905A, “2,3-substituted pyridines for the treatment of inflammation” (G. D. Searle & Co., priority 1997, dated 1999):
pIC50: −log10 of the molar value.

How the values were obtained:
COX-1 = biological target: T1, COX-1 (Homo sapiens, UniProt P23219); assay: COX-1 activity in vitro, recombinant human enzyme (PGE2 ELISA); assay type: biochemical; conditions: human (h); 10 μM arachidonic acid, 10-20 min pre-incubation; read-out: COX-1 ID50
T1 construct: A 2.0 kb fragment containing the coding region; made in house; host or cells: SF9 insect cells (baculovirus, pVL1393)
Description: (§1) The COX-2 inhibition activity of the compounds of this invention illustrated in the Examples was determined by the following methods.
(§2) Recombinant COX-1 and COX-2 were prepared as described by Gierse et al, [J. Biochem., 305, 479-84 (1995)]. A 2.0 kb fragment containing the coding region of either human or murine COX-1 or human or murine COX-2 was cloned into a BamH1 site of the baculovirus transfer vector pVL1393 (Invitrogen) to generate the baculovirus transfer vectors for COX-1 and COX-2 in a manner similar to the method of D. R. O'Reilly et al (Baculovirus Expression Vectors: A Laboratory Manual (1992)). Recombinant baculoviruses were isolated by transfecting 4 μg of baculovirus transfer vector DNA into SF9 insect cells (2×10^8) along with 200 ng of linearized baculovirus plasmid DNA by the calcium phosphate method. See M. D. Summers and G. E. Smith, A Manual of Methods for Baculovirus Vectors and Insect Cell Culture Procedures, Texas Agric. Exp. Station Bull. 1555 (1987). Recombinant viruses were purified by three rounds of plaque purification and high titer (10^7 -10^8 pfu/ml) stocks of virus were prepared. For large scale production, SF9 insect cells were infected in 10 liter fermentors (0.5×10^6 /ml) with the recombinant baculovirus stock such that the multiplicity of infection was 0.1. After 72 hours the cells were centrifuged and the cell pellet homogenized in Tris/Sucrose (50 mM: 25%, pH 8.0) containing 1% 3-[(3-cholamidopropyl)dimethylammonio]-1-propanesulfonate (CHAPS). The homogenate was centrifuged at 10,000×G for 30 minutes, and the resultant supernatant was stored at -80° C. before being assayed for COX activity.
(§3) b. Assay for COX-1 and COX-2 activity COX activity was assayed as PGE2 formed/μg protein/time using an ELISA to detect the prostaglandin released. CHAPS-solubilized insect cell membranes containing the appropriate COX enzyme were incubated in a potassium phosphate buffer (50 mM, pH 8.0) containing epinephrine, phenol, and heme with the addition of arachidonic acid (10 μM). Compounds were pre-incubated with the enzyme for 10-20 minutes prior to the addition of arachidonic acid. Any reaction between the arachidonic acid and the enzyme was stopped after ten minutes at 37° C./room temperature by transferring 40 μl of reaction mix into 160 μl ELISA buffer and 25 μM indomethacin. The PGE2 formed was measured by standard ELISA technology (Cayman Chemical).

COX-2 = biological target: T2, COX-2 (Homo sapiens, UniProt P35354); assay: COX-2 activity in vitro, recombinant human enzyme (PGE2 ELISA); assay type: biochemical; conditions: human (h); 10 μM arachidonic acid, 10-20 min pre-incubation; read-out: COX-2 ID50
T2 construct: A 2.0 kb fragment containing the coding region; made in house; host or cells: SF9 insect cells (baculovirus, pVL1393)
T2 sequence (P35354 18-604): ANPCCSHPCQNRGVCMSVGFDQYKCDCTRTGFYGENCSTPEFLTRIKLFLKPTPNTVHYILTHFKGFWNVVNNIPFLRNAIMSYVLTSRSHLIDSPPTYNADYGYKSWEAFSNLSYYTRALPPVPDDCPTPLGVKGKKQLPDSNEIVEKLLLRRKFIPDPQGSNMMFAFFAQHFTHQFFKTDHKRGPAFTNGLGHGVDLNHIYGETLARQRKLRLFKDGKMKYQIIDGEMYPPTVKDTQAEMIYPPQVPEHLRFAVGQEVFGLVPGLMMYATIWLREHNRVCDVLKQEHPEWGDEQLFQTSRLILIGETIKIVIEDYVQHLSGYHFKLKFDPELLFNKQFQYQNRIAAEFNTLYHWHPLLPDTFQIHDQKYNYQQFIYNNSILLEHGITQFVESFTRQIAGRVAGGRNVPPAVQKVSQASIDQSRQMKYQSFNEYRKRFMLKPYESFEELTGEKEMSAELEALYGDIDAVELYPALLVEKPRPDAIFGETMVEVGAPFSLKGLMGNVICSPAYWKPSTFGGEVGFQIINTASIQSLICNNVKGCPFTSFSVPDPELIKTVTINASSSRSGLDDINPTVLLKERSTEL
Description: as §1, §2, §3

T1 sequence (P23219 24-599): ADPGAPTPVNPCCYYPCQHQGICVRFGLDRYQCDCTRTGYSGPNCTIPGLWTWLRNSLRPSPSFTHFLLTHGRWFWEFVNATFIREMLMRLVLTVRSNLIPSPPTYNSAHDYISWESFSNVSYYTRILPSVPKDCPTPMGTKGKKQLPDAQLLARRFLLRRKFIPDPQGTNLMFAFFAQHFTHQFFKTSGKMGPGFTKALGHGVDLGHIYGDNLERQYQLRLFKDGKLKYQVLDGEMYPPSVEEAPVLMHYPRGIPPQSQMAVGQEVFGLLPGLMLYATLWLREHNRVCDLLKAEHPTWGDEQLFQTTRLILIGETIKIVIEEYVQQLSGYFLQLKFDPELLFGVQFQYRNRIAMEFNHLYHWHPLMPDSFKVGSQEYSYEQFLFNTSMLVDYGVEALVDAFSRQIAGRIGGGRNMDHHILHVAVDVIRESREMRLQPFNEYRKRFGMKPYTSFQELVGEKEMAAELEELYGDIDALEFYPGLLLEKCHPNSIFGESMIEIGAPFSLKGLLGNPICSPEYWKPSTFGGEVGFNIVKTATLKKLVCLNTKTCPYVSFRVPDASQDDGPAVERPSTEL

Row | Structure (SMILES) | pIC50 (COX-1) | pIC50 (COX-2)
1 | CCCCOc1nc(-c2ccc(F)cc2)c(-c2ccc(S(C)(=O)=O)cc2)cc1C(C)O (racemic) [Example 43, (+/-) 2-Butoxy-6-(4-fluorophenyl)-α-methyl-5-[4-(methylsulfonyl)phenyl]pyridine-3-methanol] | 4.55 | 7.00
2 | CCCCOc1nc(-c2ccc(F)cc2)c(-c2ccc(S(C)(=O)=O)cc2)cc1C(C)OC(=O)CCC (racemic) [Example 44, (+/-) 1-[2-Butoxy-6-(4-fluorophenyl)-5-[4-(methylsulfonyl)phenyl]pyridin-3-yl]ethylbutanoate] | < 4.00 | 5.70
3 | CS(=O)(=O)c1ccc(-c2ccc(Cl)nc2-c2ccc(F)cc2)cc1 [Example 1, 2-chloro-6-(4-fluorophenyl)-5-[4-(methylsulfonyl)phenyl]pyridine] | < 4.00 | 4.54
4 | CSc1ccc(-c2nc(SC)ccc2-c2ccc(S(C)(=O)=O)cc2)cc1 [Example 5, 5-[4-(Methylsulfonyl)phenyl]-2-methylthio-6-[4-(methylthio)phenyl]pyridine] | < 4.00 | > 7.00
5 | CS(=O)(=O)c1ccc(-c2ccc(N=[N+]=[N-])nc2-c2ccc(F)cc2)cc1 [Example 6, 2-Azido-6-(4-fluorophenyl)-5-[4-(methylsulfonyl)phenyl]pyridine] | < 4.00 | 5.70
6 | CCCOc1nc(-c2ccc(F)cc2)c(-c2ccc(S(C)(=O)=O)cc2)cc1C#N [Example 10, 6-(4-Fluorophenyl)-5-[4-(methylsulfonyl)phenyl]-2-propoxypyridine-3-carbonitrile] | < 4.00 | 6.70
7 | COc1ccc(-c2nc(OC)c(C#N)cc2-c2ccc(S(C)(=O)=O)cc2)cc1 [Example 11, 2-Methoxy-6-(4-methoxyphenyl)-5-[4-(methylsulfonyl)phenyl]pyridine-3-carbonitrile] | < 4.00 | 6.40
8 | CN(C)c1nc(-c2ccc(F)cc2)c(-c2ccc(S(C)(=O)=O)cc2)cc1C#N [Example 12, 2-(Dimethylamino)-6-(4-fluorophenyl)-5-[4-(methylsulfonyl)phenyl]pyridine-3-carbonitrile] | < 4.00 | 6.22
9 | CSc1nc(-c2ccc(F)cc2)c(-c2ccc(S(C)(=O)=O)cc2)cc1C#N [Example 13, 6-(4-Fluorophenyl)-5-[4-(methylsulfonyl)phenyl]-2-(methylthio)pyridine-3-carbonitrile] | < 4.00 | 6.70
10 | CCCCOc1nc(-c2ccc(F)cc2)c(-c2ccc(S(C)(=O)=O)cc2)cc1C#N [Example 14, 2-Butoxy-6-(4-fluorophenyl)-5-[4-(methylsulfonyl)phenyl]pyridine-3-carbonitrile] | < 4.00 | > 7.00
11 | CS(=O)(=O)c1ccc(-c2cc(C#N)c(OCc3ccccc3)nc2-c2ccc(F)cc2)cc1 [Example 15, 6-(4-Fluorophenyl)-5-[4-(methylsulfonyl)phenyl]-2-(phenylmethoxy)pyridine-3-carbonitrile] | < 4.00 | > 7.00
12 | CNc1nc(-c2ccc(F)cc2)c(-c2ccc(S(C)(=O)=O)cc2)cc1C#N [Example 16, 6-(4-Fluorophenyl)-2-(methylamino)-5-[4-(methylsulfonyl)phenyl]pyridine-3-carbonitrile] | < 4.00 | 5.64
13 | C=CCOc1nc(-c2ccc(F)cc2)c(-c2ccc(S(C)(=O)=O)cc2)cc1C#N [Example 17, 6-(4-Fluorophenyl)-5-[4-(methylsulfonyl)phenyl]-2-[(2-propenyl)oxy]pyridine-3-carbonitrile] | < 4.00 | > 7.00
14 | CCCCCCOc1nc(-c2ccc(F)cc2)c(-c2ccc(S(C)(=O)=O)cc2)cc1C#N [Example 18, 6-(4-Fluorophenyl)-2-hexyloxy-5-[4-(methylsulfonyl)phenyl]pyridine-3-carbonitrile] | < 4.00 | 6.70
15 | CCCCCOc1nc(-c2ccc(F)cc2)c(-c2ccc(S(C)(=O)=O)cc2)cc1C#N [Example 24, 6-(4-Fluorophenyl)-5-[4-(methylsulfonyl)phenyl]-2-pentoxypyridine-3-carbonitrile] | < 4.00 | > 7.00
16 | CC(C)=CCOc1nc(-c2ccc(F)cc2)c(-c2ccc(S(C)(=O)=O)cc2)cc1C#N [Example 25] | < 4.00 | 7.00
17 | CS(=O)(=O)c1ccc(-c2cc(C#N)c(OCCCC(F)(F)F)nc2-c2ccc(F)cc2)cc1 [Example 27, 6-(4-Fluorophenyl)-5-[4-(methylsulfonyl)phenyl]-2-(4,4,4-trifluorobutoxy)pyridine-3-carbonitrile] | < 4.00 | 6.70
18 | CCCCOc1nc(-c2ccc(F)cc2)c(-c2ccc(S(N)(=O)=O)cc2)cc1C#N [Example 28, 4-[6-butoxy-4-cyano-2-(4-Fluorophenyl)-3-pyridine]benzenesulfonamide] | 6.70 | > 7.00
19 | CCCCOc1nc(-c2ccc(F)cc2)c(-c2ccc(S(C)(=O)=O)cc2)cc1CO [Example 29, 2-Butoxy-6-(4-fluorophenyl)-5-[4-(methylsulfonyl)phenyl]pyridine-3-methanol] | < 4.00 | > 7.00
20 | CCCCOc1nc(-c2ccc(F)cc2)c(-c2ccc(S(C)(=O)=O)cc2)cc1C(F)F [Example 31, 2-Butoxy-3-difluoromethyl-6-(4-fluorophenyl)-5-[4-(methylsulfonyl)phenyl]pyridine] | < 4.00 | > 7.00
21 | CCCCOc1nc(-c2ccc(F)cc2)c(-c2ccc(S(C)(=O)=O)cc2)cc1CN [Example 32, 2-Butoxy-6-(4-fluorophenyl)-5-[4-(methylsulfonyl)phenyl]pyridine-3-methylamine] | < 4.00 | 5.80
22 | CCCCOc1nc(-c2ccc(F)cc2)c(-c2ccc(S(C)(=O)=O)cc2)cc1CNC(C)=O [Example 33] | < 4.00 | 5.85
23 | CCCCOc1nc(-c2ccc(F)cc2)c(-c2ccc(S(C)(=O)=O)cc2)cc1CN(C)C [Example 37, 2-Butoxy-6-(4-fluorophenyl)-N,N-dimethyl-5-[4-(methylsulfonyl)phenyl]pyridine-3-methanamine] | < 4.00 | 6.10
24 | CCCCOc1nc(-c2ccc(F)cc2)c(-c2ccc(S(C)(=O)=O)cc2)cc1COC(C)=O [Example 39, 2-Butoxy-6-(4-fluorophenyl)-5-[4-(methylsulfonyl)phenyl]pyridine-3-methanol, acetate] | < 4.00 | 7.00
25 | CCCCOc1nc(-c2ccc(F)cc2)c(-c2ccc(S(C)(=O)=O)cc2)cc1COC(=O)CCC [Example 40, [2-Butoxy-6-(4-fluorophenyl)-5-[4-(methylsulfonyl)phenyl]pyridin-3-yl]methylbutanoate] | < 4.00 | 7.00
26 | CCCCOc1nc(-c2ccc(F)cc2)c(-c2ccc(S(C)(=O)=O)cc2)cc1COC(=O)C(C)(C)C [Example 41, [2-Butoxy-6-(4-fluorophenyl)-5-[4-(methylsulfonyl)phenyl]pyridin-3-yl]methyl-2,2-propanoate] | < 4.00 | < 4.00
27 | CCCCOc1nc(-c2ccc(F)cc2)c(-c2ccc(S(C)(=O)=O)cc2)cc1CNC [Example 42, 2-Butoxy-6-(4-fluorophenyl)-N-methyl-5-[4-(methylsulfonyl)phenyl]pyridine-3-methanamine] | < 4.00 | 5.52
